Test results published in patent publication US20170190671A1, “BIS(ARYL)CATECHOL DERIVATIVES AS HERBICIDES” (E I DU PONT DE NEMOURS AND COMPANY, priority 2014, published 2017).

Columns and labels:
Type in all cases: in vivo
[1] = system: giant foxtail (Setaria faberii); assay: Test A preemergence; details: Setaria faberi, pre-emergence, 240 h; for pest or weed control at 31 g/ha: 31 g ai/ha, 0 to 100 scale (0 no effect, 100 complete control), read-out: Foxtail, Giant plant response rating; for pest or weed control at 125 g/ha: 125 g ai/ha, 0 to 100 scale, read-out: Plant response rating, Foxtail, Giant
Source text: (§1) Seeds of plant species selected from barnyardgrass (Echinochloa crus-galli), kochia (Kochia scoparia), ragweed (common ragweed, Ambrosia elatior), Italian ryegrass (Lolium multiflorum), large (Lg) crabgrass (Digitaria sanguinalis), giant foxtail (Setaria faberii), morningglory (Ipomoea spp.), pigweed (Amaranthus retroflexus), velvetleaf (Abutilon theophrasti), wheat (Triticum aestivum), and corn (Zea mays) were planted into a blend of loam soil and sand and treated preemergence with a directed soil spray using test chemicals formulated in a non-phytotoxic solvent mixture which included a surfactant.
(§2) At the same time, plants selected from these crop and weed species and also blackgrass (Alopecurus myosuroides), and galium (catchweed bedstraw, Galium aparine) were planted in pots containing the same blend of loam soil and sand and treated with postemergence applications of test chemicals formulated in the same manner. Plants ranged in height from 2 to 10 cm and were in the one- to two-leaf stage for the postemergence treatment. Treated plants and untreated controls were maintained in a greenhouse for approximately 10 days, after which time all treated plants were compared to untreated controls and visually evaluated for injury. Plant response ratings, summarized in Table A, are based on a 0 to 100 scale where 0 is no effect and 100 is complete control. A dash (-) response means no test result.

[2] = system: kochia (Kochia scoparia); assay: Test A preemergence; details: Bassia scoparia, pre-emergence, 240 h; for pest or weed control at 31 g/ha: 31 g ai/ha, 0 to 100 scale (0 no effect, 100 complete control), read-out: Kochia plant response rating; for pest or weed control at 125 g/ha: 125 g ai/ha, 0 to 100 scale, read-out: Plant response rating, Kochia
Source text: as §1, §2

[3] = system: ragweed (common ragweed, Ambrosia elatior); assay: Test A preemergence; details: Ambrosia artemisiifolia, pre-emergence, 240 h; for pest or weed control at 31 g/ha: 31 g ai/ha, 0 to 100 scale (0 no effect, 100 complete control), read-out: Ragweed plant response rating; for pest or weed control at 125 g/ha: 125 g ai/ha, 0 to 100 scale, read-out: Plant response rating, Ragweed
Source text: as §1, §2

[4] = system: pigweed (Amaranthus retroflexus); assay: Test A preemergence; details: Amaranthus retroflexus, pre-emergence, 240 h; for pest or weed control at 31 g/ha: 31 g ai/ha, 0 to 100 scale (0 no effect, 100 complete control), read-out: Pigweed plant response rating; for pest or weed control at 125 g/ha: 125 g ai/ha, 0 to 100 scale, read-out: Plant response rating, Pigweed
Source text: as §1, §2

[5] = system: barnyardgrass (Echinochloa crus-galli); assay: Test A preemergence; details: Echinochloa crus-galli, pre-emergence, 240 h; for pest or weed control at 31 g/ha: 31 g ai/ha, 0 to 100 scale (0 no effect, 100 complete control), read-out: Barnyardgrass plant response rating; for pest or weed control at 125 g/ha: 125 g ai/ha, 0 to 100 scale, read-out: Plant response rating, Barnyardgrass
Source text: as §1, §2

[6] = system: Italian ryegrass (Lolium multiflorum); assay: Test A preemergence; details: Lolium multiflorum, pre-emergence, 240 h; for pest or weed control at 31 g/ha: 31 g ai/ha, 0 to 100 scale (0 no effect, 100 complete control), read-out: Ryegrass, Italian plant response rating; for pest or weed control at 125 g/ha: 125 g ai/ha, 0 to 100 scale, read-out: Plant response rating, Ryegrass, Italian
Source text: as §1, §2

[7] = system: giant foxtail (Setaria faberii); assay: Test A postemergence; details: Setaria faberi, post-emergence, 240 h, 0 to 100 scale, read-out: Plant response rating, Foxtail, Giant; for pest or weed control at 31 g/ha: 31 g ai/ha; for pest or weed control at 125 g/ha: 125 g ai/ha
Source text: as §1, §2

[8] = system: corn (Zea mays); assay: Test A postemergence; details: Zea mays, post-emergence, 240 h, 0 to 100 scale; for Corn plant response rating (crop injury, 0 = no effect, 100 = complete kill) at 31 g/ha: 31 g ai/ha; for Corn plant response rating (crop injury, 0 = no effect, 100 = complete kill) at 125 g/ha: 125 g ai/ha
Source text: as §1, §2

[9] = system: kochia (Kochia scoparia); assay: Test A postemergence; details: Bassia scoparia, post-emergence, 240 h, 0 to 100 scale, read-out: Plant response rating, Kochia; for pest or weed control at 31 g/ha: 31 g ai/ha; for pest or weed control at 125 g/ha: 125 g ai/ha
Source text: as §1, §2

[10] = system: galium (catchweed bedstraw, Galium aparine); assay: Test A postemergence; details: Galium, post-emergence, 240 h, 0 to 100 scale, read-out: Plant response rating, Galium; for pest or weed control at 31 g/ha: 31 g ai/ha; for pest or weed control at 125 g/ha: 125 g ai/ha
Source text: as §1, §2

[11] = system: ragweed (common ragweed, Ambrosia elatior); assay: Test A postemergence; details: Ambrosia artemisiifolia, post-emergence, 240 h, 0 to 100 scale, read-out: Plant response rating, Ragweed; for pest or weed control at 31 g/ha: 31 g ai/ha; for pest or weed control at 125 g/ha: 125 g ai/ha
Source text: as §1, §2

[12] = system: pigweed (Amaranthus retroflexus); assay: Test A postemergence; details: Amaranthus retroflexus, post-emergence, 240 h, 0 to 100 scale, read-out: Plant response rating, Pigweed; for pest or weed control at 31 g/ha: 31 g ai/ha; for pest or weed control at 125 g/ha: 125 g ai/ha
Source text: as §1, §2

[13] = system: wheat (Triticum aestivum); assay: Test A postemergence; details: Triticum aestivum, post-emergence, 240 h, 0 to 100 scale, read-out: Plant response rating, Wheat; for plant injury at 31 g/ha: 31 g ai/ha; for plant injury at 125 g/ha: 125 g ai/ha
Source text: as §1, §2

[14] = system: barnyardgrass (Echinochloa crus-galli); assay: Test A postemergence; details: Echinochloa crus-galli, post-emergence, 240 h, 0 to 100 scale, read-out: Plant response rating, Barnyardgrass; for pest or weed control at 31 g/ha: 31 g ai/ha; for pest or weed control at 125 g/ha: 125 g ai/ha
Source text: as §1, §2

[15] = system: blackgrass (Alopecurus myosuroides); assay: Test A postemergence; details: Alopecurus myosuroides, post-emergence, 240 h, 0 to 100 scale, read-out: Plant response rating, Blackgrass; for pest or weed control at 31 g/ha: 31 g ai/ha; for pest or weed control at 125 g/ha: 125 g ai/ha
Source text: as §1, §2

[16] = system: Italian ryegrass (Lolium multiflorum); assay: Test A postemergence; details: Lolium multiflorum, post-emergence, 240 h, 0 to 100 scale, read-out: Plant response rating, Ryegrass, Italian; for pest or weed control at 31 g/ha: 31 g ai/ha; for pest or weed control at 125 g/ha: 125 g ai/ha
Source text: as §1, §2

Row | Structure (SMILES) | pest or weed control at 31 g/ha [1] [%] | pest or weed control at 125 g/ha [1] [%] | pest or weed control at 31 g/ha [2] [%] | pest or weed control at 125 g/ha [2] [%] | pest or weed control at 31 g/ha [3] [%] | pest or weed control at 125 g/ha [3] [%] | pest or weed control at 31 g/ha [4] [%] | pest or weed control at 125 g/ha [4] [%] | pest or weed control at 31 g/ha [5] [%] | pest or weed control at 125 g/ha [5] [%] | pest or weed control at 31 g/ha [6] [%] | pest or weed control at 125 g/ha [6] [%] | pest or weed control at 31 g/ha [7] [%] | pest or weed control at 125 g/ha [7] [%] | Corn plant response rating (crop injury, 0 = no effect, 100 = complete kill) at 31 g/ha [8] [%] | Corn plant response rating (crop injury, 0 = no effect, 100 = complete kill) at 125 g/ha [8] [%] | pest or weed control at 31 g/ha [9] [%] | pest or weed control at 125 g/ha [9] [%] | pest or weed control at 31 g/ha [10] [%] | pest or weed control at 125 g/ha [10] [%] | further results
1 | N#Cc1cccc(Oc2ncc(F)cn2)c1Oc1ccc(Br)cn1 [Compound 9] | 30 | 100 | 40 | 100 | 0 | 10 | 100 | 100 | 30 | 90 | 0 | 0 | 10 | 70 | 0 | 10 | 60 | 100 | 70 | 100 | pest or weed control at 31 g/ha [11]: 30%; pest or weed control at 125 g/ha [11]: 70%; pest or weed control at 31 g/ha [12]: 50%; pest or weed control at 125 g/ha [12]: 100%; plant injury at 31 g/ha [13]: 0%; plant injury at 125 g/ha [13]: 40%; pest or weed control at 31 g/ha [14]: 0%; pest or weed control at 125 g/ha [14]: 50%; pest or weed control at 31 g/ha [15]: 30%; pest or weed control at 125 g/ha [15]: 80%; pest or weed control at 31 g/ha [16]: 20%; pest or weed control at 125 g/ha [16]: 70%
2 | N#Cc1cccc(Oc2ncc(Br)cn2)c1Oc1ccc(Br)cn1 [Compound 12] | 0 | 70 | 0 | 20 | 0 | 0 | 60 | 100 | 0 | 30 | 0 | 0 | 0 | 40 | 0 | 20 | 0 | 20 | 10 | 50 | pest or weed control at 31 g/ha [11]: 0%; pest or weed control at 125 g/ha [11]: 0%; pest or weed control at 31 g/ha [12]: 10%; pest or weed control at 125 g/ha [12]: 100%; plant injury at 31 g/ha [13]: 0%; plant injury at 125 g/ha [13]: 20%; pest or weed control at 31 g/ha [14]: 0%; pest or weed control at 125 g/ha [14]: 20%; pest or weed control at 31 g/ha [15]: 0%; pest or weed control at 125 g/ha [15]: 50%; pest or weed control at 31 g/ha [16]: 0%; pest or weed control at 125 g/ha [16]: 0%
